Reference: patent US4748187A, “Opioid peptide-degrading enzyme inhibitor with a germanium compound” (Asai Germanium Research Institute, priority 1983, dated 1988)
pIC50: −log10 of the molar value.

Legend:
Type in all cases: biochemical
Dipeptidylaminopeptidase [1] = test: Inhibition of dipeptidylaminopeptidase from monkey brain (substrate enkephalin)
Aminopeptidase [2] = test: Inhibition of aminopeptidase from monkey brain (substrate enkephalin)
Aminopeptidase [3] = test: Inhibition of aminopeptidase from bovine longitudinal muscle (substrate enkephalin); details: for IC50: aminopeptidase; for inhibition rate, Aminopeptidase: principal ingredient 1 μg/1 ml
From the text: (§1) (1) As described above, the inhibitor of the present invention has a strong effect of inhibiting the action of the opioid peptide-degrading enzyme. […] On the other hand, however, some opioid peptides released in vivo when such narcotic substances are given and opioid peptide-degrading enzymes have been known. Accordingly, the effects of the products of the present invention were judged from inhibition rates realized when the products were allowed to act on the opioid peptide-degrading enzyme in the presence of the opioid peptide in vitro.
(§2) In the tests, the product of the invention was added to an opioid peptide such as enkephalin or its model compound. After an incubation effected for a given time, the inhibition rates of the product against the opioid peptide-degrading enzyme were examined. Various opioid peptides were used.
(§3) The opioid peptide-degrading enzymes derived from bovine longitudinal muscle used in the above examples were purified partially by a process of Goreustein and Snyder S. H., ["Life Sci." 25, 2065 (1979)]. The inhibition effects of the compounds of the present invention on the opioid peptide-degrading enzymes were determined by a process of T. Hazato, M. Shimamura, T. Katayama and T. Yamamoto [B.B.R.C. 105, 470-475 (1982)] (for dipeptidylaminopeptidase), a process of M. Shimamura, T. Hazato and T. Katayama [B.B.A., 756, 223-229 (1983)] (for aminopeptidase) and analogous processes.

aminopeptidase [4] = test: Inhibition of aminopeptidase of human cerebrospinal fluid (substrate enkephalin); details: for IC50: aminopeptidase eluted from human cerebrospinal fluid, substrate enkephalin; for inhibition effect on aminopeptidase: dialyzed human cerebrospinal fluid, 2 mg/ml
Experimental: (§4) A human cerebrospinal fluid was dialyzed by using 25 mM of tris-HCl buffer having a pH of 7.0 for 5 hrs. Enkephalin-degrading enzymes contained therein were analyzed according to a radioautography or the like. In the cerebrospinal fluid, the aminopeptidase activity was the strongest. Further, dipeptidylaminopeptidase and dipeptidylcarboxypeptidase activites which were non-selective for bestatin were also recognized.
(§5) The compound (3) and (6) of the present invention were allowed to act on the respective enzymes.
On the other hand, the aminopeptidase alone was eluted according to the cellulose column chromatography using a NaCl solution as a eluant. IC50 values of the above two compounds on the aminopeptidase were determined according to Porapak Q column process and high-performance liquid chromatography using enkephalin as the substrate. The results were compared with those of Arphamenin A and B the inhibitive actions of which on the enkephalin-degrading enzyme have been known.

[5] = molecular target: T1, Dipeptidylcarboxypeptidase (Bos taurus, UniProt P12820); test: Inhibition of dipeptidylcarboxypeptidase from bovine longitudinal muscle (substrate Hip-His-Leu)
T1 construct: derived from bovine longitudinal muscle; from tissue; host or cells: bovine longitudinal muscle, partially purified (Gorenstein and Snyder 1979)
T1 sequence (P12820 29-1306): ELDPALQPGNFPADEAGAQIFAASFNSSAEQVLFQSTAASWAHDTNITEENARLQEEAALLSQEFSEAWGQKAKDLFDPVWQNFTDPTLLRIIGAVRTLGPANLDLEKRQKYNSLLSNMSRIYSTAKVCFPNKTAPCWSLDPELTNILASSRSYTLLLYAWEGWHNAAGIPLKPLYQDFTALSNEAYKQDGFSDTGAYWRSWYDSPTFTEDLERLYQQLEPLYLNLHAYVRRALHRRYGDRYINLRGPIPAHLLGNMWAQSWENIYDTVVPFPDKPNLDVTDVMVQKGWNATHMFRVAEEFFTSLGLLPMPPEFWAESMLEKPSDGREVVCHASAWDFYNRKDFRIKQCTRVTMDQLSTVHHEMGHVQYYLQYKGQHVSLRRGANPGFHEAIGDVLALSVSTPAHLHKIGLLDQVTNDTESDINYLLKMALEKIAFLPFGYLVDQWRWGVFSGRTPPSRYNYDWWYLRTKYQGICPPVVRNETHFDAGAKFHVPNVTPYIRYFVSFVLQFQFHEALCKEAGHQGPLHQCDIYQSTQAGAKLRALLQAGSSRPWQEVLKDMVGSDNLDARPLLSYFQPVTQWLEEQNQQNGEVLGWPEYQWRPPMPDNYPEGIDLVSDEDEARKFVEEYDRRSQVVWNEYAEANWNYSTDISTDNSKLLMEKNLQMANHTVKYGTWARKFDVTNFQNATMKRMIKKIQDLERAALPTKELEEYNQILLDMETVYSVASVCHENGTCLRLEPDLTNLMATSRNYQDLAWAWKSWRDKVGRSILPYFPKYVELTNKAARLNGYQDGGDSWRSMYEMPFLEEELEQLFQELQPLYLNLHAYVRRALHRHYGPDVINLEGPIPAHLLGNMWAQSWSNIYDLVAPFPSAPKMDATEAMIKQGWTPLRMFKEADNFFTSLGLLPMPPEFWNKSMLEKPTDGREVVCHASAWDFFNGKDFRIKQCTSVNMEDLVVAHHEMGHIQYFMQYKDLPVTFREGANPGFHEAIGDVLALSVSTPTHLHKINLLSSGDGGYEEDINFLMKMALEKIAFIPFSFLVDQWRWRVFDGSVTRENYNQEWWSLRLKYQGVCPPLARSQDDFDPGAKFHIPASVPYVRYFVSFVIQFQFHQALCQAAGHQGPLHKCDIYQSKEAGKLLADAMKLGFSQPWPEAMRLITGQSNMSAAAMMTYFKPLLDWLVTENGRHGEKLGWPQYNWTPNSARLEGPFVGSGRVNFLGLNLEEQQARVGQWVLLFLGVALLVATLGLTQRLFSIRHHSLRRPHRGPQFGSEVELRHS
From the text: as §1, §2
The opioid peptide-degrading enzymes derived from bovine longitudinal muscle used in the above examples were purified partially by a process of Goreustein and Snyder S. H., ["Life Sci." 25, 2065 (1979)]. The inhibition effects of the compounds of the present invention on the opioid peptide-degrading enzymes were determined by a process of T. Hazato, M. Shimamura, T. Katayama and T. Yamamoto [B.B.R.C. 105, 470-475 (1982)] (for dipeptidylaminopeptidase), a process of M. Shimamura, T. Hazato and T. Katayama [B.B.A., 756, 223-229 (1983)] […]

[6] = molecular target: dipeptidylcarboxypeptidase (Homo sapiens, UniProt P12821); test: Inhibition of dipeptidylcarboxypeptidase of human cerebrospinal fluid; details: dialyzed human cerebrospinal fluid; 2 mg/ml
dipeptidylcarboxypeptidase, sequence (P12821 30-1232): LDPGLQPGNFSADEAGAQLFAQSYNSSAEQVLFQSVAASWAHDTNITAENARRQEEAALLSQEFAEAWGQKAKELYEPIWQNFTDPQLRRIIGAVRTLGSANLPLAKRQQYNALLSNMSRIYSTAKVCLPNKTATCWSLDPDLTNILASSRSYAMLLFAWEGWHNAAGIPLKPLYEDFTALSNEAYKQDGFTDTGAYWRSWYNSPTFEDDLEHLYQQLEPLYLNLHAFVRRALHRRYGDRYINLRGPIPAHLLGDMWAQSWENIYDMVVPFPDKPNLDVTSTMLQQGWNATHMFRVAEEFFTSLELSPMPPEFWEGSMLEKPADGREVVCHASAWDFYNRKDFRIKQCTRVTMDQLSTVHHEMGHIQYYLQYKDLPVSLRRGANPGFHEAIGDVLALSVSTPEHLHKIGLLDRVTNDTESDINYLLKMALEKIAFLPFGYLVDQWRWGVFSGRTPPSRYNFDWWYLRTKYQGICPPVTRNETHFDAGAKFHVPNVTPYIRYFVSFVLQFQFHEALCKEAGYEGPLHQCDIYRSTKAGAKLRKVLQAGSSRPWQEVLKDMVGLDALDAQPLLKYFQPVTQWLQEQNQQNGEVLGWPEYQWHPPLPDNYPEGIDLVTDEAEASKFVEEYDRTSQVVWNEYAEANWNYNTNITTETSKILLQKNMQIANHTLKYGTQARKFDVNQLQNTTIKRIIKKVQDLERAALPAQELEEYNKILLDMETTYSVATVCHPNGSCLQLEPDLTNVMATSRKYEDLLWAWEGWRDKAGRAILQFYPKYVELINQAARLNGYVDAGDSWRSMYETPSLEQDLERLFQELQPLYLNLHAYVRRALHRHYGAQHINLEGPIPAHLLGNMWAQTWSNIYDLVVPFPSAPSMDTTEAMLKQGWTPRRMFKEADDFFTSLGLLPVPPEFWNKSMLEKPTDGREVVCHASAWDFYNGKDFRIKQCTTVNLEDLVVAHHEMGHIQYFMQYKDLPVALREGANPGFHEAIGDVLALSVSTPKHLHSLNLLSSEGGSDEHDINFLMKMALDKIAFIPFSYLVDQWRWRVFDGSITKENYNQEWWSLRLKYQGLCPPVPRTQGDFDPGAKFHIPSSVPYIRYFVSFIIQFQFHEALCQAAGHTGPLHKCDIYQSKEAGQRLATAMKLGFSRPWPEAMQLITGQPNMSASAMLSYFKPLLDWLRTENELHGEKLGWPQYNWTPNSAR
Experimental: as §4, §5

carboxypeptidase [7] = test: Inhibition of carboxypeptidase of human cerebrospinal fluid; details: dialyzed human cerebrospinal fluid; 2 mg/ml
Experimental: as §4, §5

Carboxypeptidase [8] = test: Inhibition of carboxypeptidase from bovine longitudinal muscle (substrate Hip-L-PheAla); details: for inhibition rate, Carboxypeptidase: principal ingredient 1 μg/1 ml
From the text: as §1, §2, §3

dipeptidylaminopeptidase [9] = molecular target: T2, dipeptidylaminopeptidase (Homo sapiens, UniProt Q9NY33); test: Inhibition of dipeptidylaminopeptidase of human cerebrospinal fluid; details: dialyzed human cerebrospinal fluid; 2 mg/ml
T2 construct: A human cerebrospinal fluid was dialyzed; from tissue; host or cells: human cerebrospinal fluid, dialyzed
T2 sequence (Q9NY33 2-737 limits assumed): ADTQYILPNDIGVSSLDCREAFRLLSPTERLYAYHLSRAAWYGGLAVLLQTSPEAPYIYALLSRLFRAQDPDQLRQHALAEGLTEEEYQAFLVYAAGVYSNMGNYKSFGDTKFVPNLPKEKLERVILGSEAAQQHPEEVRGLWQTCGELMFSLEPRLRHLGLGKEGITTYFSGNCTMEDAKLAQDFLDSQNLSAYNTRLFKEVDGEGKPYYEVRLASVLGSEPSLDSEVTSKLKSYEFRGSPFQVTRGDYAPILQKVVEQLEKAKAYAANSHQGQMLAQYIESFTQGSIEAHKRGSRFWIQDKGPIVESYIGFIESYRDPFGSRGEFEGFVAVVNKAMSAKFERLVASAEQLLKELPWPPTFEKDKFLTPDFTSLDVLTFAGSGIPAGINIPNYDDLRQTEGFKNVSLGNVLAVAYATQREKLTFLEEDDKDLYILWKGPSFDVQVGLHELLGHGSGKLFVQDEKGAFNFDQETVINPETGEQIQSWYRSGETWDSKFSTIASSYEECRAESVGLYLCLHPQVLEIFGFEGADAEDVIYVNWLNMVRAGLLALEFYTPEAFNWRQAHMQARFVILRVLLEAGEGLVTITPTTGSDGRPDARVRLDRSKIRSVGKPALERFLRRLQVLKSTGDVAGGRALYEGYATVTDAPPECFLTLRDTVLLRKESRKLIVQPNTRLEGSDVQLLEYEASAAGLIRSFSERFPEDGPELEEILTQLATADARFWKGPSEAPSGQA
Experimental: as §4, §5

[10] = molecular target: Angiotensin converting enzyme; test: Inhibition of angiotensin converting enzyme from monkey brain; details: substrate Hip--His--L-Lue
[11] = molecular target: T3, angiotensin converting enzyme (Rattus norvegicus, UniProt P47820); test: Inhibition of angiotensin converting enzyme from rat lung; details: substrate Hip--His--L-Lue
T3 construct: lung; from tissue; host or cells: rat lung
T3 sequence (P47820 36-1313): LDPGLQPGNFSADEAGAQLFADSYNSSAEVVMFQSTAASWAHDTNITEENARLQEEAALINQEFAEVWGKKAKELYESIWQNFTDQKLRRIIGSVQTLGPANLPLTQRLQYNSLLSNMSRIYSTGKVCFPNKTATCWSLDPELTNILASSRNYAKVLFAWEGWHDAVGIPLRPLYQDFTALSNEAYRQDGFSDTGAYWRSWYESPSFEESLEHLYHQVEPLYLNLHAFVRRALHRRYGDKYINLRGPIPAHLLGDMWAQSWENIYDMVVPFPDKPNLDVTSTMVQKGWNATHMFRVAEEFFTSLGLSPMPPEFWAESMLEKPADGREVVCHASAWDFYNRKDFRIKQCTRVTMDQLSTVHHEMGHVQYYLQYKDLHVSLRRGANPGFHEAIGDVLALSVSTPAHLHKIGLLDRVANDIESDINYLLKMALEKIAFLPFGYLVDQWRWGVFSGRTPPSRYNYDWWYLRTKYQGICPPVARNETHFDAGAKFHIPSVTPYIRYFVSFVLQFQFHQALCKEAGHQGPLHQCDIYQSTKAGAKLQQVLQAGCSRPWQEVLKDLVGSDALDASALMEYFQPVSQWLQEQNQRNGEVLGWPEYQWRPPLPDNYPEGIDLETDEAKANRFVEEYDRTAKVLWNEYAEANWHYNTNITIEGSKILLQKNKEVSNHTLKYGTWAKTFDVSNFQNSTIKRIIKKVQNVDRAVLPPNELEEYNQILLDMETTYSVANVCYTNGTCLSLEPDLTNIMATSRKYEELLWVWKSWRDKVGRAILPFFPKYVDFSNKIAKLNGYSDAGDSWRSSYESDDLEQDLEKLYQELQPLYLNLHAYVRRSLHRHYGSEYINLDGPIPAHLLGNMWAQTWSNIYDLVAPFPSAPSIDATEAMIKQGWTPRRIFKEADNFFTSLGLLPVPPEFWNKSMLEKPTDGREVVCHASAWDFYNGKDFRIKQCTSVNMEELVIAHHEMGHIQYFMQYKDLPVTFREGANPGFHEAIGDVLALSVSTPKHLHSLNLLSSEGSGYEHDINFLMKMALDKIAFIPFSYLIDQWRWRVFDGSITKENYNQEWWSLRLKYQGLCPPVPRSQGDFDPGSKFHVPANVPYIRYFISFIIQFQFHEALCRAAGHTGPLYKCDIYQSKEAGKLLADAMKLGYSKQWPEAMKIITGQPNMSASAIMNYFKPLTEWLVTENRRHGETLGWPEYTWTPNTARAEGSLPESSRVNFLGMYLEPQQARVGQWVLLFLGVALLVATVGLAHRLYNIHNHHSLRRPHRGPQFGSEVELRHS

Which “inhibition rate, Dipeptidylaminopeptidase” value (Dipeptidylaminopeptidase [1]) does the source give for `O=C(O)C[CH2][Ge](=[S])[S][Ge](=[S])[CH2]CC(=O)O` [Compound (1)] here?
Its value is 98.2%.

And the “inhibition rate, Aminopeptidase” value (Aminopeptidase [2])?
Its value is 87.8%.

For `C[C](C)(CC(=O)O)[Ge](=[S])[S][Ge](=[S])[C](C)(C)CC(=O)O` [Compound (5)], which IC50 (Aminopeptidase [3]) is on record?
Its IC50 is 110 µg/mL.

And the “inhibition rate, Aminopeptidase” value (Aminopeptidase [3])?
Its value is 88.0%.

Which IC50 (aminopeptidase [4]) does the source give for `N=C(N)NCCCC(N)C(=O)CC(Cc1ccccc1)C(=O)O` (stereo not drawn) [Arphamenine A, reference compound] here?
The IC50 was 810 μg/m.

Which results are given for `O=C(O)C[CH](c1ccccc1)[Ge](=[S])[S][Ge](=[S])[CH](CC(=O)O)c1ccccc1` (stereo not drawn) [Compound (6)]?
pIC50 [5]: 3.73; inhibition effect on dipeptidylcarboxypeptidase [6]: exhibited inhibition effects; inhibition effect on carboxypeptidase (carboxypeptidase [7]): exhibited inhibition effects; IC50 (Carboxypeptidase [8]; carboxypeptidase): 275 µg/mL; inhibition rate, Carboxypeptidase (Carboxypeptidase [8]): 89.8%; IC50 (Aminopeptidase [3]): 19 µg/mL; inhibition rate, Aminopeptidase (Aminopeptidase [3]): 97.0%; IC50 (aminopeptidase [4]): 440 μg/m; inhibition effect on aminopeptidase (aminopeptidase [4]): exhibited inhibition effects

`N=C(N)NCCCC(N)C(=O)CC(Cc1ccc(O)cc1)C(=O)O` (stereo not drawn) [Arphamenine B, reference compound] was tested. Which IC50 (aminopeptidase [4]) did it give?
Its IC50 is 650 μg/m.

Which “inhibition effect on dipeptidylaminopeptidase” value (dipeptidylaminopeptidase [9]) does the source give for `CC([CH2][Ge](=[S])[S][Ge](=[S])[CH2]C(C)C(=O)O)C(=O)O` (stereo not drawn) [Compound (3)] here?
Its value is “exhibited inhibition effects”.

And the “inhibition rate, Dipeptidylaminopeptidase” value (Dipeptidylaminopeptidase [1])?
The value was 97.7%.

What about the “inhibition rate, Aminopeptidase” value (Aminopeptidase [2]) of the same compound?
The value was 85.6%.

What about the “inhibition effect on dipeptidylcarboxypeptidase” value [6] of the same compound?
Its value is “exhibited inhibition effects”.

And the IC50 (aminopeptidase [4])?
The IC50 was 450 μg/m.

And the “inhibition effect on aminopeptidase” value (aminopeptidase [4])?
Its value is “exhibited inhibition effects”.

For `C[CH](CC(=O)O)[Ge](=[S])[S][Ge](=[S])[CH](C)CC(=O)O` (stereo not drawn) [Compound (2)], which IC50 [10] is on record?
Its IC50 is 78 µg/mL.

What about the “inhibition rate, Dipeptidylaminopeptidase” value (Dipeptidylaminopeptidase [1]) of the same compound?
Its value is 97.9%.

What about the “inhibition rate, Aminopeptidase” value (Aminopeptidase [2]) of the same compound?
Its value is 87.6%.

And the pIC50 [5]?
The pIC50 was 3.80.

And the pIC50 [11]?
Its pIC50 is 3.77.

And the “inhibition rate, Carboxypeptidase” value (Carboxypeptidase [8])?
Its value is 6.2%.
